Paper PMC6661809, “Lead optimization for promising monoamine oxidase inhibitor from eugenol for the treatment of neurological disorder: synthesis and in silico based study” (BMC Chemistry, 2019)

Experiments:
[1] = target: T1, hMAO-A (Homo sapiens, UniProt P21397); test: Recombinant human MAO-A inhibition screening (Amplex Red, p-tyramine); type: biochemical; details: for Selectivity index: IC50 (MAO-A)/IC50 (MAO-B); for IC50: recombinant hMAO-A, p-tyramine substrate, mean SEM
T1 construct: purchased Sigma-Aldrich; host or cells: insect cells (BTI-TN-5B14) infected with recombinant baculovirus
T1 sequence (P21397 1-527): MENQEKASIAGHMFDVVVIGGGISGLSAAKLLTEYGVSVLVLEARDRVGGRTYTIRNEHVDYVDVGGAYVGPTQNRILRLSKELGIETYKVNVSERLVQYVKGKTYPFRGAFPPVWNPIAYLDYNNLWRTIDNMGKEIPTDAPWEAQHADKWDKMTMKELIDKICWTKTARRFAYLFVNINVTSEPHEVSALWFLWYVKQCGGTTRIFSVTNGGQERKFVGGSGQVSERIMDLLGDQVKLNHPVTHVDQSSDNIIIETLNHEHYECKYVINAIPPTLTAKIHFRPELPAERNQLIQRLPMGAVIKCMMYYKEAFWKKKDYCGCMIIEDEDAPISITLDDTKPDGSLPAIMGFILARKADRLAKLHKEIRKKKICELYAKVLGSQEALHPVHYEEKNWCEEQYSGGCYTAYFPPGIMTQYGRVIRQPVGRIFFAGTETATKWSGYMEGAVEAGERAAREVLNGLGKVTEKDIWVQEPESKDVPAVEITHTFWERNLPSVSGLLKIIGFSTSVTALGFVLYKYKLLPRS
Text: (§1) To evaluate IC50 values for the inhibition of human MAO-A and MAO-B by newly synthesized compounds the commercially available recombinant human enzymes expressed in insect cells were used (Sigma-Aldrich). The MAO inhibition assay was based on the method described by Anderson et al., 1993 and Chimenti et al. with some modifications. The Amplex Red MAO Kit tyramine (Sigma-Aldrich) affords a suitable fluorimetric method to evaluate MAO enzyme action of synthetic and natural compounds. In the assay, MAO reacts with p-tyramine, a common substrate for both MAO isoforms, ensuing in the production of H2O2, which is identified by a fluorimetric method (λex = 530/λem = 585 nm). Each test well contained 0.1 mL of sodium phosphate buffer (0.05 M, pH 7.4), a range of concentrations of the eugenol based derivatives or reference compounds along with recombinant hMAO-A or hMAO-B in appropriate quantity. After the preparation of this mixture the wells were subjected to incubation for 15 min at 37 °C, placed in the dark fluorimeter chamber. Once this incubation period over, the process was rendered by mixing 200 µM Amplex Red reagent (Sigma-Aldrich), 1 U/mL horseradish peroxidase (Sigma-Aldrich) and p-tyramine (Sigma-Aldrich). Subsequently, the formation of hydrogen peroxide exerted by MAO isoforms was quantified by using Amplex-Red reagent, a non-fluorescent probe that reacts with H2O2 in the existence of horse radish peroxidase to generate the fluorescent component resorufin. Moreover, the control analysis was calculated in the absence of compound and reference inhibitors. The probability of compounds to change the fluorescence produced in the reaction mix due to non-enzymatic inhibition was assessed by mixing titled compounds to solutions of single Amplex Red reagent in a sodium phosphate buffer. Data were processed in Microsoft Excel, to calculate IC50 values.

[2] = target: T2, hMAO-B (Homo sapiens, UniProt P27338); test: Recombinant human MAO-B inhibition screening (Amplex Red, p-tyramine); type: biochemical; details: p-tyramine substrate, mean SEM
T2 construct: purchased Sigma-Aldrich; host or cells: insect cells (BTI-TN-5B14) infected with recombinant baculovirus
T2 sequence (P27338 1-520): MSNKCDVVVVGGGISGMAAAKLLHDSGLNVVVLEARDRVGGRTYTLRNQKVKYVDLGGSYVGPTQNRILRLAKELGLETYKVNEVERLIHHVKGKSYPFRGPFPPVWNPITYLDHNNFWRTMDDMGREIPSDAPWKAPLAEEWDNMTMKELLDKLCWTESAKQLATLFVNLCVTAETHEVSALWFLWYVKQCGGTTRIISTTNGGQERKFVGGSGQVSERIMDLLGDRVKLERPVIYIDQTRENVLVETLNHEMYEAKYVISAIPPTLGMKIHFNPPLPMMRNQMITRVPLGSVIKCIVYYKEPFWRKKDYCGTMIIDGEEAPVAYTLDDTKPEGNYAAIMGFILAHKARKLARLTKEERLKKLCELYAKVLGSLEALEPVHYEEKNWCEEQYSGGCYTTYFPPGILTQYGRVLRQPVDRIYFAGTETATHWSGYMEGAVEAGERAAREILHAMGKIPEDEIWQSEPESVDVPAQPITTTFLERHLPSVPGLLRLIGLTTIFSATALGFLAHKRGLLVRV
Text: as §1

[3] = Nitric oxide scavenging activity; details: Table 8, mean ± SEM, n = 3
Text: The generation of nitric oxide (NO·) on biological tissues is mediated by particular nitric oxide synthases enzyme that control the catabolism of the arginine to citrulline via creation of NO through a five electron oxidative reaction. At the physiological pH (7.2) in aqueous solution sodium nitroprusside decompose to produce NO·. Finally, NO· reacts with oxygen at underaerobic conditions and produces stable products (nitrate and nitrite), this amount can be determined by means of Griess reagent. The procedure for the nitric oxide scavenging activity was adopted from reports of Alam et al..

[4] = Hydrogen peroxide scavenging (H2O2) assay; details: Table 7, mean ± SEM, n = 3
Method: Hydrogen peroxide generally turns into water and oxygen and produces highly toxic hydroxyl radical that renders the damage to DNA and peroxidation of lipid. H2O2 scavenging ability of eugenol based derivatives was evaluated by method described by Nakano and colleagues with some alteration. The hydrogen peroxide solution (40 mM) was prepared in phosphate buffer (40 mM pH 7.4) and addition of several ranges of synthesized derivatives (05–80 μg/mL) was done into H2O2 solution (2 mL). The determination of H2O2 concentration was done by UV/Vis Epoch ELISA reader at 230 nm upon incubation of 10 min. Solution of phosphate buffer without H2O2 was noted as blank reading. The hydrogen peroxide percentage inhibition was estimated through the formula [(AH − AD)/AO] × 100, where AH is the absorbance of the control and AD is the absorbance of compounds/reference taken as 05–80 μg/mL L-ascorbic acid.

[5] = Ferric reducing antioxidant power (FRAP) assay; details: Table 9, mean ± SEM, n = 3;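 note: Ferrous-TPTZ reduction read as absorbance at 593 nm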
Method: The capacity of antioxidants to decrease ferric iron is measured by this method. The reaction of […] (TPTZ) and complex ferric iron yields ferrous form at low pH. […] This method was adopted from the reports of Benzie et al..

[6] = DPPH scavenging activity; details: Table 6, mean ± SEM, n = 3
Method: Solutions of synthesized compounds were set in ethanol/water (1:1) having 10 mM to 100 mM at a period of 10 mM. The 0.01% DPPH· stock solution was prepared in ethanol/water (1:1). Samples were prepared as 5 mL DPPH· solution was mixed with 5 mL L-ascorbic acid solution then shaken vigorously and kept in the dark. Corresponding blank sample were prepared and L-ascorbic acid was used as reference standard. […] The actual decrease in absorption induced by the test was compared with the positive controls. The IC50 values were calculated use the dose inhibition curve in linear range by plotting the extract concentration versus the corresponding scavenging effect through following equation [(ADR − APR)/AO] × 100. Where ADR is the absorbance prior to reaction and APR is the absorbance after reaction with DPPH·.

Selectivity index [1] | IC50 [1] | melting point | IC50 [2] | Nitric oxide scavenging IC50 [3] | H2O2 scavenging IC50 [4] | FRAP IC50 [5] | DPPH scavenging IC50 [6] | Compound
1.76 | 22.38 ± 0.067 µM | 157 to 159 °C | 12.66 ± 0.021 µM | 14.63 ± 0.412 µg/mL | 15.7 ± 0.784 µg/mL | 14.63 ± 0.007 µg/mL | 16.04 ± 0.026 µg/mL | C=CCc1ccc(OC(=O)c2ccccc2O)c(OC)c1 [Compound 13c, 4-allyl-2-methoxyphenyl 2-hydroxybenzoate]
5.72 | 52.55 ± 0.038 µM | 178 to 179 °C | 9.183 ± 0.034 µM | 11.74 ± 0.523 µg/mL | 12.5 ± 0.862 µg/mL | 10.77 ± 0.026 µg/mL | 12.47 ± 0.014 µg/mL | C=CCc1ccc(OC(=O)c2ccc(O)cc2)c(OC)c1 [Compound 13b, 4-allyl-2-methoxyphenyl 4-hydroxybenzoate]
0.53 | 15.85 ± 0.039 µM | – | 29.37 ± 0.048 µM | 7.156 ± 0.002 µg/mL | 9.156 ± 0.002 µg/mL | 5.934 ± 0.053 µg/mL | 9.152 ± 0.063 µg/mL | 1-(2-(4-allylphenoxy)acetyl)-4-(4-hydroxybenzoyl)thiosemicarbazide [Compound 5a]
1.49 | 20.89 ± 0.023 µM | 182 to 184 °C | 13.95 ± 0.005 µM | 11.23 ± 0.032 µg/mL | 14.4 ± 0.143 µg/mL | 12.45 ± 0.017 µg/mL | 14.88 ± 0.018 µg/mL | C=CCc1ccc(OC(=O)c2ccccc2S)c(OC)c1 [Compound 13d, 4-allyl-2-methoxyphenyl 2-mercaptobenzoate]
0.22 | 10.84 ± 0.025 µM | 230 to 231 °C | 47.7 ± 0.073 µM | 9.007 ± 0.014 µg/mL | 9.547 ± 0.051 µg/mL | 7.234 ± 0.001 µg/mL | 9.514 ± 0.017 µg/mL | C=CCc1ccc(OCC(=O)NNC(=O)c2ccccc2O)c(OC)c1 [Compound 9a, N′-(2-(4-allyl-2-methoxyphenoxy)acetyl)-2-hydroxybenzohydrazide]
0.19 | 5.989 ± 0.007 µM | – | 31.19 ± 0.016 µM | 6.456 ± 0.023 µg/mL | 8.904 ± 0.034 µg/mL | 5.112 ± 0.009 µg/mL | 8.304 ± 0.073 µg/mL | C=CCc1ccc(OCC(=O)NNC(=S)NC(=O)c2cc(O)c(O)c(O)c2)c(OC)c1 [Compound 5b]
5.14 | 38.53 ± 0.018 µM | 199 to 200 °C | 7.494 ± 0.014 µM | 20.23 ± 0.073 µg/mL | 26.6 ± 0.544 µg/mL | 18.14 ± 0.001 µg/mL | 20.66 ± 0.032 µg/mL | C=CCc1ccc(OC(=O)c2ccc(O)c(OC)c2)c(OC)c1 [Compound 13a, 4-allyl-2-methoxyphenyl 4-hydroxy-3-methoxybenzoate]
0.59 | 16.62 ± 0.004 µM | 210 to 211 °C | 27.85 ± 0.054 µM | 8.095 ± 0.018 µg/mL | 9.393 ± 0.017 µg/mL | 9.912 ± 0.005 µg/mL | 9.293 ± 0.028 µg/mL | C=CCc1ccc(OCC(=O)NNC(=O)c2ccccc2S)c(OC)c1 [Compound 9b, N′-(2-(4-allyl-2-methoxyphenoxy)acetyl)-2-mercaptobenzohydrazide]

Second part, the compound before the results:

Compound | Selectivity index [1] | IC50 [1] | melting point | IC50 [2] | Nitric oxide scavenging IC50 [3] | H2O2 scavenging IC50 [4] | FRAP IC50 [5] | DPPH scavenging IC50 [6]
O=C1O[C@H]([C@@H](O)CO)C(O)=C1O [L-Ascorbic acid, reference compound] | – | – | – | – | 7.523 ± 0.005 µg/mL | 8.121 ± 0.082 µg/mL | 8.112 ± 0.091 µg/mL | 8.58 ± 0.009 µg/mL
C=CCc1ccc(OC(=O)/C=C\c2ccccc2)c(OC)c1 [Compound 17, (Z)-4-allyl-2-methoxyphenyl 3-phenylacrylate] | 0.40 | 13.92 ± 0.051 µM | – | 34.2 ± 0.037 µM | 25.61 ± 0.076 µg/mL | 30.4 ± 0.064 µg/mL | 15.91 ± 0.003 µg/mL | 31.30 ± 0.014 µg/mL
C=CCc1ccc(OCC(=O)NNC(=O)c2ccccn2)c(OC)c1 [Compound 11, N′-(2-(4-allyl-2-methoxyphenoxy)acetyl)picolinohydrazide] | 0.67 | 18.06 ± 0.044 µM | 204 to 205 °C | 26.8 ± 0.077 µM | 10.71 ± 0.743 µg/mL | 10.33 ± 0.022 µg/mL | 9.126 ± 0.013 µg/mL | 11.21 ± 0.044 µg/mL
C=CCc1ccc(OC(=O)/C=C\c2ccc(O)c(OC)c2)c(OC)c1 [Compound 16, (Z)-4-allyl-2-methoxyphenyl 3-(4-hydroxy-3-methoxyphenyl)acrylate] | 0.14 | 7.348 ± 0.027 µM | 120 to 122 °C | 49.15 ± 0.011 µM | 18.63 ± 0.654 µg/mL | 20.6 ± 0.856 µg/mL | 16.88 ± 0.099 µg/mL | 27.70 ± 0.023 µg/mL
